{"source": "patent US20160272713A1", "about": "“Fibrosis Inhibiting Compounds and Methods of Use Thereof in the Prevention or Treatment of Fibrosing Diseases” (priority 2013, published 2016)", "molecules": {"B1": {"name": "CRP A32N: CRP glycosylated by mutating its 32nd amino acid from alanine to asparagine (protein, UniProt P02741 19-224, looked up, variant A32N)", "C-reactive protein": "QTDMSRKAFVFPKESDTSYVSLKAPLTKPLKNFTVCLHFYTELSSTRGYSIFSYATKRQDNEILIFWSKDIGYSFTVGGSEILFEVPEVTVAPVHICTSWESASGIVEFWVDGKPRVRKSLKKGYTVGAEASIILGQEQDSFGGNFEGSQSLVGDIGNVNMWDFVLSPDEINTIYLGGPFSPNVLNWRALKYEVQGEVFTKPQLWP"}, "B2": {"name": "CRP: C-reactive protein, 51% sequence identity with SAP (protein, UniProt P02741 19-224, looked up)", "C-reactive protein": "B1 C-reactive protein with N32A"}}, "key": {"macrophages": {"tested_on": "macrophages", "assay": "macrophage polarization assay (M1 marker ICAM-1, M2 marker CD163)", "format": "cell-based, human", "settings": "3 microgram/ml protein", "source_text": "(§1) Human blood was collected into heparin tubes (BD Bioscience, San Jose, Calif.) from adult volunteers who gave written consent and with specific approval from the Texas A&M University human subjects Institutional Review Board. PBMCs were then isolated as previously described in Pilling, D. et al., Improved serum-free culture conditions for differentiation of human and murine fibrocytes, Journal of Immunology Methods 351:62-70 (2009), incorporated in material part by reference herein. Alamar Blue (Life Technologies, Grand Island, N.Y.) was used to assess cell viability following the manufacturer's protocol. Fibrocyte differentiation assays in the presence of different compounds were performed in serum-free medium as described in Pilling, D. et al., Improved serum-free culture conditions for differentiation of human and murine fibrocytes, Journal of Immunology Methods 351:62-70 (2009) which is incorporated in material part by reference herein. Macrophage polarization assays to detect formation of proinflammatory macrophages with an M1 phenotype were carried out in serum-free medium, in which case monocytes were left to differentiate to macrophages for 5 days and then the medium was replaced with fresh medium containing 3 microgram/ml of the tested protein.\nMacrophage staining with anti-CD163 and anti-ICAM-1 antibodies was carried out as described in Pilling, D. et al., Identification of markers that distinguish monocyte-derived fibrocytes from monocytes, macrophages, and fibroblasts, PloS one 10:e7475 (2009) which is incorporated in material part by reference herein. Both primary antibodies were used at a concentration of 5 microgram/ml."}, "[1]": {"tested_on": "fibrocyte formation from human PBMCs", "assay": "fibrocyte formation (differentiation) assay with PBMCs in serum-free medium", "format": "cell-based", "settings": "for effect on fibrocyte formation / differentiation (in words): counts normalized to control; for IC50: PBMC, read-out: IC50 of inhibition of fibrocyte formation; for concentration at which fibrocyte formation was significantly inhibited: p<0.05 (t-test)", "source_text": "as §1"}, "C57/BL6 mice": {"tested_on": "C57/BL6 mice", "assay": "bleomycin-induced pulmonary fibrosis in mice", "format": "in vivo", "method": "To determine the effects of compound 1 in treatment of a fibrosing disease, pulmonary fibrosis was selected as a model. Pulmonary fibrosis was induced in C57/BL6 mice by oropharyngeal aspiration of bleomycin into their lungs. 24 hour after bleomycin administration, mice received daily intraperitoneal injections of compound 1. At day 21 mice were euthanized and the bronchoalveolar lavage fluid (BAL) and the lungs were harvested.\nThe successful aspiration of bleomycin into the lungs was confirmed by listening for the crackling noise heard after the aspiration. Starting 24 hours following bleomycin aspiration (day 1), mice were treated daily with intraperitoneal injections of 50 microliters of PBS containing 2 microliters of 1 mg/ml of compound 1 (ChemBridge Corporation, San Diego, Calif.) (0.1 mg/kg) dissolved in DMSO (SigmaAldrich), 2 microliters of 0.1 mg/ml of compound 1 (0.01 mg/kg) dissolved in DMSO, 2 microliters of 0.01 mg/ml of compound 1 (0.001 mg/kg) dissolved in DMSO, or an equal volume of PBS containing 2 microliters of DMSO. All animals were used in accordance with rules published by the National Institutes of Health and with a protocol approved by the Texas A&M University Institutional Animal Care and Use Committee. Mice were weighed daily, and euthanized using CO2 following NIH guidelines at day 21 after bleomycin aspiration. No injections were done on day 21. […] The BAL cells from the first BAL collection were collected by centrifugation at 500×g for 10 minutes, and the supernatants were transferred to Eppendorf tubes. The supernatants were flash frozen with liquid nitrogen, and stored at −20° C. until further use. The BAL pellets were resuspended in the secondary and tertiary BAL fluid and the combined cells were collected by centrifugation at 500×g for 5 minutes. The cells were resuspended in 500 microliters of 4% (w/v) BSA-PBS and counted with a hemocytometer. 100 microliters of diluted cells were then aliquoted into cytospin funnels and were then spun onto glass slides (Superfrost plus white slides, VWR) at 400×g for 5 minutes using a cytospin centrifuge (Shandon, Cheshire, England). These cells were then air-dried, and stained for CD11b (Biolegend) or CD11c (MBL International, Woburn, Mass.) as described below.\nAfter collection of BAL fluid, mouse lungs were inflated with prewarmed OCT (VWR, Radnor, Pa.) and then embedded in OCT, frozen on dry ice, and then stored at −80° C. 6-micron cryosections of mouse lung were mounted on Superfrost Plus microscope slides (VWR). Sections were fixed in acetone for 20 min at room temperature. […] After washing, the biotinylated antibodies were detected by streptavidin-alkaline phosphatase (Vector Laboratories) following the manufacturer's protocol. […]"}, "[2]": {"settings": "0.1, 0.01 and 0.001 mg/kg daily intraperitoneal, day 21"}}, "note": "Changes are numbered by the printed parent chain. Names and notes keep the numbering of the source."}
{"molecule": "SAP NA: enzymatically (neuraminidase) desialylated SAP lacking the terminal sialic acids", "values": [{"measurement": "expression of the M1 marker ICAM-1", "setting": "macrophages", "result": "increased the expression of the M1 marker ICAM-1"}, {"measurement": "expression of the M2 marker CD163", "setting": "macrophages", "result": "did not"}, {"measurement": "effect on fibrocyte formation / differentiation (in words)", "setting": "[1]", "result": "reduced inhibitory effect on fibrocyte differentiation"}]}
{"molecule": "CCC(=O)Nc1nc(C)c(-c2csc(Nc3ccc(N(C)C)cc3)n2)s1", "note": "[Compound 1]", "values": [{"measurement": "CD11b positive inflammatory macrophages in the BAL vs bleomycin control", "setting": "C57/BL6 mice; [2]", "result": "significantly decreased"}, {"measurement": "collagen in the lungs (picrosirius red) vs bleomycin alone", "setting": "C57/BL6 mice; [2]", "result": "significantly less collagen in the lungs"}, {"measurement": "number of CD11b positive inflammatory macrophages in the lung sections", "setting": "C57/BL6 mice; 0.1 and 0.01 mg/kg daily intraperitoneal, day 21, after BAL", "result": "significantly decreased"}, {"measurement": "CD11c positive macrophages in the BAL", "setting": "C57/BL6 mice; daily intraperitoneal injections, day 21", "result": "not altered significantly"}, {"measurement": "IC50", "setting": "[1]", "result": 0.0031, "unit": "nM"}]}
{"molecule": "SAP: Serum amyloid P, 125 kDa pentameric pentraxin protein", "values": [{"measurement": "expression of the M1 marker ICAM-1", "setting": "macrophages", "result": "did not cause such an increase"}, {"measurement": "expression of the M2 marker CD163", "setting": "macrophages", "result": "increased the expression of the M2 marker CD 163"}, {"measurement": "concentration at which fibrocyte formation was significantly inhibited", "setting": "[1]", "result": "≥ 0.25", "unit": "microgram/ml"}]}
{"molecule": "CCCOC(=O)c1ccc(-c2ccc(C=C3C(=O)N(c4ccc(S(N)(=O)=O)cc4)N=C3C(F)(F)F)o2)cc1", "note": "[Compound 2]", "values": [{"measurement": "IC50", "setting": "[1]", "result": 0.33, "unit": "nM"}]}
{"molecule": "COC(=O)c1ccc(-c2ccc(C=C3C(=O)N(c4ccc(S(N)(=O)=O)cc4)N=C3C(F)(F)F)o2)cc1", "note": "[Compound 3]", "values": [{"measurement": "IC50", "setting": "[1]", "result": 2.2, "unit": "nM"}, {"measurement": "effect on fibrocyte formation / differentiation (in words)", "setting": "[1]", "result": "significantly inhibited fibrocyte formation at all tested concentrations"}]}
{"molecule": "B1", "values": [{"measurement": "expression of the M1 marker ICAM-1", "setting": "macrophages", "result": "did not cause such an increase"}, {"measurement": "expression of the M2 marker CD163", "setting": "macrophages", "result": "increased the expression of the M2 marker CD 163"}, {"measurement": "effect on fibrocyte formation / differentiation (in words)", "setting": "[1]", "result": "able to inhibit fibrocyte formation, although not as well as SAP"}, {"measurement": "concentration at which fibrocyte formation was significantly inhibited", "setting": "[1]", "result": "≥ 1", "unit": "microgram/ml"}]}
{"molecule": "B2", "values": [{"measurement": "expression of the M1 marker ICAM-1", "setting": "macrophages", "result": "increased the expression of the M1 marker ICAM-1"}, {"measurement": "expression of the M2 marker CD163", "setting": "macrophages", "result": "did not"}]}
